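Where inhibition never reached the appropriate level, the endpoint shown equals the highest concentration tested. Otherwise, values were interpolated linearly from a five-concentration, 48-hour dose response in 96-well plates. GI50 is the concentration that inhibits growth by half.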 Active and inactive are the calls of the source. Cut-off read from the data, not from the text of the source: active = GI50 up to about 1.1 µM and inactive = higher.
What was measured:
Experiment in all cases: DTP human tumour cell line panel, 48 h
SF-295 = tested on: SF-295
SN12C = tested on: SN12C
EKVX = tested on: EKVX
OVCAR-4 = tested on: OVCAR-4
A549 = tested on: A549
HOP-92 = tested on: HOP-92
HOP-62 = tested on: HOP-62
OVCAR-8 = tested on: OVCAR-8
MCF7 = tested on: MCF7
A498 = tested on: A498
RXF 393 = tested on: RXF 393
SW-620 = tested on: SW-620
CAKI-1 = tested on: CAKI-1
U-251 = tested on: U-251
SNB-19 = tested on: SNB-19
HCC 2998 = tested on: HCC 2998
OVCAR-3 = tested on: OVCAR-3
ACHN = tested on: ACHN
RPMI-8226 = tested on: RPMI-8226

Measured: GI50

COC(=O)/C=C(\C)CC/C=C(\C)CCC(O)C(C)(C)O (stereo not drawn)
inactive: SF-295 23.1 µM | SN12C 19.3 µM | EKVX 41.9 µM | OVCAR-4 48.5 µM | A549 34.8 µM | HOP-92 29.9 µM | HOP-62 21.8 µM | OVCAR-8 25.1 µM | MCF7 37 µM | A498 33 µM | RXF 393 26.3 µM | SW-620 22.7 µM | CAKI-1 20.4 µM | U-251 28.2 µM | SNB-19 > 100 µM | HCC 2998 16.8 µM | OVCAR-3 17.9 µM | ACHN 25.6 µM

OCCCc1ccc2c(c1)[C@H](CO)[C@@H](c1ccc(O)cc1)O2
inactive: SF-295 > 100 µM | SN12C > 100 µM | EKVX > 100 µM | OVCAR-4 16.8 µM | A549 > 100 µM | HOP-92 > 100 µM | HOP-62 > 100 µM | OVCAR-8 > 100 µM | MCF7 > 100 µM | RPMI-8226 26 µM | A498 > 100 µM | RXF 393 > 100 µM | SW-620 > 100 µM | U-251 > 100 µM | SNB-19 > 100 µM | HCC 2998 16.6 µM | OVCAR-3 > 100 µM | ACHN > 100 µM

C[C@@H]1CC[C@H]2C(C)(C)[C@H]3C[C@@]12CC[C@@]3(C)O [CEDROL]
inactive: SF-295 > 100 µM | SN12C 26.7 µM | EKVX > 100 µM | OVCAR-4 > 100 µM | A549 42.7 µM | HOP-92 72.6 µM | HOP-62 > 100 µM | OVCAR-8 > 100 µM | MCF7 > 100 µM | RPMI-8226 24.6 µM | A498 > 100 µM | SW-620 > 100 µM | CAKI-1 > 100 µM | U-251 > 10 µM | SNB-19 > 100 µM | HCC 2998 52.2 µM | OVCAR-3 > 100 µM | ACHN > 100 µM

CO[C@@]12C[C@@H](C)[C@]34O[C@H]3C[C@]3(C)O[C@]43CC1=C(C)C(=O)O2
inactive: SF-295 > 100 µM | SN12C > 100 µM | EKVX > 100 µM | OVCAR-4 > 100 µM | A549 > 100 µM | HOP-92 > 100 µM | OVCAR-8 > 100 µM | MCF7 > 100 µM | RPMI-8226 > 100 µM | A498 > 100 µM | SW-620 > 100 µM | CAKI-1 > 100 µM | U-251 > 100 µM | SNB-19 > 100 µM | HCC 2998 > 100 µM | OVCAR-3 > 100 µM | ACHN > 100 µM

CC1=CC(=O)C[C@]2(C)[C@@H](O)CC(C(C)CO)C[C@@H]12 (stereo partly drawn)
inactive: SF-295 > 100 µM | SN12C > 100 µM | EKVX > 100 µM | OVCAR-4 > 100 µM | A549 > 100 µM | HOP-92 > 100 µM | HOP-62 > 100 µM | OVCAR-8 > 100 µM | MCF7 > 100 µM | A498 > 100 µM | RXF 393 > 100 µM | SW-620 > 100 µM | CAKI-1 > 100 µM | U-251 > 100 µM | SNB-19 > 100 µM | HCC 2998 > 100 µM | OVCAR-3 > 100 µM | ACHN > 100 µM

N#CCc1nc(C#N)c(N)o1
inactive: SF-295 > 100 µM | SN12C > 100 µM | OVCAR-4 > 100 µM | A549 > 100 µM | HOP-92 > 100 µM | HOP-62 > 100 µM | OVCAR-8 > 100 µM | MCF7 > 100 µM | A498 > 100 µM | RXF 393 > 100 µM | SW-620 > 100 µM | CAKI-1 > 100 µM | U-251 > 100 µM | HCC 2998 > 100 µM | OVCAR-3 > 100 µM | ACHN > 100 µM

COc1cc([C@H]2Oc3c(OC)cc(CCCO)cc3[C@@H]2CO)ccc1O [DIHYDRODEHYDRODICONIFERY ALCOHOL]
inactive: SF-295 > 100 µM | SN12C > 100 µM | EKVX > 100 µM | OVCAR-4 76.4 µM | A549 > 100 µM | HOP-92 89.5 µM | HOP-62 > 100 µM | OVCAR-8 > 100 µM | MCF7 37.2 µM | RPMI-8226 55.1 µM | A498 50.6 µM | RXF 393 > 100 µM | SW-620 > 100 µM | U-251 > 100 µM | SNB-19 > 100 µM | HCC 2998 > 100 µM | OVCAR-3 > 100 µM | ACHN > 100 µM

COC(=O)/C=C/c1cc(OC)c2oc(-c3ccc(OC)c(OC)c3)c(C(=O)OC)c2c1
inactive: SF-295 > 100 µM | SN12C > 100 µM | EKVX > 100 µM | OVCAR-4 > 100 µM | A549 > 100 µM | HOP-92 > 100 µM | OVCAR-8 > 100 µM | MCF7 > 100 µM | RPMI-8226 > 100 µM | A498 > 100 µM | SW-620 > 100 µM | CAKI-1 > 100 µM | U-251 > 100 µM | SNB-19 > 100 µM | HCC 2998 > 100 µM | OVCAR-3 > 100 µM | ACHN > 100 µM

N#CSC#CCCC#CSC#N
inactive: SF-295 18.3 µM | SN12C 17.7 µM | EKVX 17.7 µM | OVCAR-4 27.1 µM | A549 19.6 µM | HOP-92 17.5 µM | HOP-62 19.3 µM | OVCAR-8 25.4 µM | MCF7 20.7 µM | A498 20 µM | RXF 393 18.9 µM | SW-620 14.2 µM | CAKI-1 19 µM | U-251 16.9 µM | SNB-19 15.5 µM | HCC 2998 17.5 µM | OVCAR-3 21.6 µM | ACHN 17.5 µM

C=CCOC1(CC=C)C(=O)OC2C(O)COC21O (stereo not drawn)
inactive: SF-295 > 100 µM | SN12C > 100 µM | EKVX > 100 µM | OVCAR-4 > 100 µM | A549 > 100 µM | HOP-62 > 100 µM | OVCAR-8 > 100 µM | MCF7 > 100 µM | A498 > 100 µM | RXF 393 > 100 µM | SW-620 > 100 µM | CAKI-1 > 100 µM | U-251 > 100 µM | SNB-19 > 100 µM | HCC 2998 > 100 µM | OVCAR-3 > 100 µM | ACHN > 100 µM

Cn1c(=O)c2nc(/N=N/Nc3nncs3)[nH]c2n(C)c1=O
inactive: SF-295 > 100 µM | SN12C > 100 µM | EKVX > 100 µM | OVCAR-4 > 100 µM | A549 > 100 µM | HOP-92 > 100 µM | HOP-62 > 100 µM | OVCAR-8 > 100 µM | MCF7 > 100 µM | A498 > 100 µM | RXF 393 > 100 µM | SW-620 > 100 µM | CAKI-1 > 100 µM | U-251 > 100 µM | SNB-19 > 100 µM | HCC 2998 > 100 µM | OVCAR-3 > 100 µM | ACHN > 100 µM
